Experiments:
[1] = target: T1, Muscarinic acetylcholine receptor M4 (Homo sapiens, UniProt P08173); assay: Positive allosteric modulation of human muscarinic M4 receptor expressed in CHO cells co-expressing Gqi5 assessed as increase in acetylcholine-induced calcium mobilization; type: functional, cell-based
T1 sequence (P08173 whole entry): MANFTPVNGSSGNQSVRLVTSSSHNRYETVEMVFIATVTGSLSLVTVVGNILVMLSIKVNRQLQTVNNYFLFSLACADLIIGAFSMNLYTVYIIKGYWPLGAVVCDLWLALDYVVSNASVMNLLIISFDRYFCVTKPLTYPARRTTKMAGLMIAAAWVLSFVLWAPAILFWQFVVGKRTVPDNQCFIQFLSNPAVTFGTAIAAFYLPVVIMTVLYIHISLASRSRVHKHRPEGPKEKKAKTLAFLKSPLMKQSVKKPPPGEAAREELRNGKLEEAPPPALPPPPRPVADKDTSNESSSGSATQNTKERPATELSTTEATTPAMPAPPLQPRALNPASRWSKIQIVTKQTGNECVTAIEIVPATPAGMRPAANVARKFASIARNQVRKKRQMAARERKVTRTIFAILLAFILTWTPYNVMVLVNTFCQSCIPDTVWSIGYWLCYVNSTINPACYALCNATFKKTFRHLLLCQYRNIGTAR

[2] = target: T2, Muscarinic acetylcholine receptor M4 (Homo sapiens) (UniProt P08173); assay: Positive allosteric modulation of human muscarinic M4 receptor expressed in CHO cells co-expressing Gqi5 assessed as increase in acetylcholine-induced calcium mobilization relative to acetylcholine; type: functional, cell-based
T2 sequence (whole entry): T1 sequence (P08173 whole entry)

[3] = target: T3, Muscarinic acetylcholine receptor M4 (Rattus norvegicus, UniProt P08485); assay: Positive allosteric modulation of rat muscarinic M4 receptor
T3 sequence (P08485 whole entry): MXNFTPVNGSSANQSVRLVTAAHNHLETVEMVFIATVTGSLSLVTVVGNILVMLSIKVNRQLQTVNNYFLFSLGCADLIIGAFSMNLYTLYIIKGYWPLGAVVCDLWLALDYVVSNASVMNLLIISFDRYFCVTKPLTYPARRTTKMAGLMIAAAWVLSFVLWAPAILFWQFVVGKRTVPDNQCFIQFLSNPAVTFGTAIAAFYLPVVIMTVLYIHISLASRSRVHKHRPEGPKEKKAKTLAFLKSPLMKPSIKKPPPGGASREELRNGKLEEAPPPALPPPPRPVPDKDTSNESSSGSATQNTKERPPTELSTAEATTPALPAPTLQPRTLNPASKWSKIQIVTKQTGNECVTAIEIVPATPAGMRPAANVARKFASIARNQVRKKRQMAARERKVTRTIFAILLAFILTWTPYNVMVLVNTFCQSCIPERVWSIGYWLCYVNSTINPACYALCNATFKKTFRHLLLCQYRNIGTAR

[4] = Intrinsic clearance in rat microsomes; type: ADME, Microsome
[5] = Intrinsic clearance in human microsomes; type: ADME, Microsome
[6] = Unbound fraction in rat plasma; type: ADME, cell-free
[7] = Unbound fraction in human plasma; type: ADME, cell-free
[8] = Unbound fraction in rat brain; type: ADME, tissue-based
[9] = Brain to plasma permeability coefficient, Kp of the compound in Sprague-Dawley rat at 0.2 mg/kg, iv measured after 0.25 hrs; type: ADME, organism-based; conditions: brain and plasma
[10] = Unbound brain-to-plasma concentration ratio in Sprague-Dawley rat at 0.2 mg/kg, iv measured after 0.25 hrs; type: ADME, organism-based; conditions: brain and plasma, read-out: K(p,uu,brain)

| SMILES | EC50 [1] [µM] | %max [2] [%] | EC50 [3] [µM] | further results |
| --- | --- | --- | --- | --- |
| Cc1c2c(ccc3c(NCc4ccc(C(=O)NCC(C)(C)C)cc4)ncnc32)nn1C | 0.957 | 90 | – | – |
| Cn1nnc2ccc(C(=O)NC3CN(c4ncc(F)cc4Cl)C3)c(N)c21 | 3.6 | 80 | – | – |
| Cc1c2c(N)c(C(=O)NC3CN(c4ncc(F)cn4)C3)ccc2nn1C | 6.21 | 90 | – | – |
| COc1ccc(CNc2ncnc3c2ccc2nn(C)c(C)c23)cc1F | 0.47 | 95 | 0.181 | – |
| Cn1nnc2ccc(C(=O)NC3CN(c4ccc(C#N)cn4)C3)c(N)c21 | 1.72 | 60 | – | – |
| Cc1c2c(ccc3c(N4CC5(COC5)C4)ncnc32)nn1C | 0.528 | 90 | – | – |
| Cn1nnc2ccc3c(NCc4ccc(C(C)(C)O)cc4)ncnc3c21 | 1.72 | 97 | – | – |
| Cc1c2cc(C(=O)NC3CN(c4cc(Cl)ncc4Cl)C3)ccc2nn1C | – | – | 0.259 | CLint scaled [4]: 28 mL/min/kg; CLint scaled [5]: 33 mL/min/kg; Kp at 0.25 h [9]: 0.05; Kp uu at 0.25 h [10]: 0.04 |
| Cc1c2c(ccc3c(NCc4ccc(C(C)(C)O)cc4)ncnc32)nn1C | 0.552 | 86 | – | %max ([2]; tested as the 2H-labelled form): 86% |
| [2H]C([2H])(Nc1ncnc2c1ccc1nn(C)c(C)c12)c1ccc(C(C)(C)O)cc1 | 0.886 | – | – | – |
| Cc1c2c(N)c(C(=O)NC3CN(c4cccc(Cl)n4)C3)ccc2nn1C | 1.45 | 78 | – | – |
| Cc1c2c(ccc3c(NCc4ccc(C(=O)NC5CCC5)cc4)ncnc32)nn1C | 0.475 | 100 | 0.322 | – |
| Cc1c2c(ccc3c(NC4CCCC4)ncnc32)nn1C | 0.848 | 76 | – | – |
| Cc1c2c(ccc3c(N4CCCC4)ncnc32)nn1C | 0.624 | 74 | – | – |
| Cn1nnc2ccc(C(=O)NC3CN(c4ccc(F)c(F)c4)C3)c(N)c21 | 2.43 | 94 | – | – |
| Cc1c2c(ccc3c(NCc4ccc(F)c(F)c4)ncnc32)nn1C | 1.48 | 86 | – | – |
| Cc1c2c(N)c(C(=O)NC3CN(c4ccc(F)c(F)c4)C3)ccc2nn1C | 0.619 | 85 | – | – |
| Cn1nnc2ccc(C(=O)NC3CN(c4cccc(Cl)n4)C3)c(N)c21 | 4.5 | 84 | – | – |
| Cn1nnc2ccc(C(=O)NC3CN(c4ccnc(C(F)(F)F)c4)C3)c(N)c21 | 0.814 | 79 | – | – |
| Cc1c2c(N)c(C(=O)NC3CN(c4ncccc4F)C3)ccc2nn1C | 3.55 | 103 | – | – |
| Cn1nnc2ccc(C(=O)NC3CN(c4cc(Cl)ncc4Cl)C3)cc21 | – | – | 0.721 | CLint scaled [4]: 10 mL/min/kg; CLint scaled [5]: 21 mL/min/kg; Kp at 0.25 h [9]: < 0.05; Kp uu at 0.25 h [10]: < 0.11 |
| COc1cc(N2CC(Nc3ncnc4c3ccc3nnn(C)c34)C2)c(Cl)cn1 | 1.49 | 93 | – | – |
| COc1ccc(CNc2ncnc3c2ccc2nnn(C)c23)cc1F | 0.592 | 74 | – | – |
| Cn1nnc2ccc3c(NC4CCCC4)ncnc3c21 | 0.82 | 69 | – | – |

Continued by falling EC50 [1], values first:

| EC50 [1] [µM] | %max [2] [%] | EC50 [3] [µM] | SMILES | further results |
| --- | --- | --- | --- | --- |
| 0.467 | 98 | – | Cc1c2c(ccc3c(CC(C)(C)C)ncnc32)nn1C | – |
| 0.462 | 83 | – | Cn1nnc2ccc(C(=O)NC3CN(c4ncc(C#N)cc4Cl)C3)c(N)c21 | – |
| 0.379 | 86 | 0.226 | COc1cc(N2CC(Nc3ncnc4c3ccc3nn(C)c(C)c34)C2)c(Cl)cn1 | CLint scaled [4]: 120 mL/min/kg; CLint scaled [5]: 55 mL/min/kg; fraction unbound [6]: 0.002; fraction unbound [7]: 0.007; fraction unbound [8]: 0.005; Kp at 0.25 h [9]: 1.55; Kp uu at 0.25 h [10]: 3.88 |
| 0.373 | 71 | 0.232 | COc1cc(N2CC(NC(=O)c3ccc4nnn(C)c4c3N)C2)c(Cl)cn1 | – |
| 0.364 | 65 | 0.167 | Cn1nnc2ccc(C(=O)NC3CN(c4ncc(Cl)cc4F)C3)c(N)c21 | – |
| 0.275 | 101 | 0.254 | Cc1c2c(ccc3c(NC4CN(c5cc(Cl)ncc5Cl)C4)ncnc32)nn1C | CLint scaled [4]: 170 mL/min/kg; CLint scaled [5]: 120 mL/min/kg; fraction unbound [6]: 0.004; fraction unbound [7]: 0.008; fraction unbound [8]: 0.002; Kp at 0.25 h [9]: 0.21; Kp uu at 0.25 h [10]: 0.11 |
| 0.244 | 96 | 0.072 | Cc1c2c(N)c(C(=O)NC3CN(c4ncc(Cl)cc4F)C3)ccc2nn1C | – |
| 0.239 | 100 | 0.168 | Cc1c2c(ccc3c(NCc4ccc(C(=O)NC5CCCC5)cc4)ncnc32)nn1C | – |
| 0.158 | 93 | 0.129 | Cc1c2c(N)c(C(=O)NC3CN(c4ncc(C#N)cc4Cl)C3)ccc2nn1C | – |
| 0.148 | 80 | 0.082 | COc1cc(N2CC(NC(=O)c3ccc4nn(C)c(C)c4c3N)C2)c(Cl)cn1 | CLint scaled [4]: 30 mL/min/kg; CLint scaled [5]: 9 mL/min/kg; fraction unbound [6]: 0.008; fraction unbound [7]: 0.045; fraction unbound [8]: 0.011; Kp at 0.25 h [9]: 0.18; Kp uu at 0.25 h [10]: 0.25 |
| 0.137 | 80 | 0.112 | Cc1c2c(N)c(C(=O)NC3CN(c4ccc(C(F)(F)F)nc4)C3)ccc2nn1C | – |
| 0.125 | 86 | 0.042 | Cc1c2c(N)c(C(=O)NC3CN(c4cc(Cl)ncc4Cl)C3)ccc2nn1C | CLint scaled [4]: 180 mL/min/kg; CLint scaled [5]: 50 mL/min/kg; fraction unbound [6]: 0.01; fraction unbound [7]: 0.034; fraction unbound [8]: 0.025; Kp at 0.25 h [9]: 0.12; Kp uu at 0.25 h [10]: 0.3 |
| 0.091 | 63 | 0.157 | Cn1nnc2ccc(C(=O)NC3CN(c4cc(Cl)ncc4Cl)C3)c(N)c21 | CLint scaled [4]: 120 mL/min/kg; CLint scaled [5]: 27 mL/min/kg; fraction unbound [6]: 0.032; fraction unbound [7]: 0.084; fraction unbound [8]: 0.033; Kp at 0.25 h [9]: 0.17; Kp uu at 0.25 h [10]: 0.18 |
| 0.063 | 81 | 0.148 | Cn1nnc2ccc3c(NC4CN(c5cc(Cl)ncc5Cl)C4)ncnc3c21 | CLint scaled [4]: 110 mL/min/kg; CLint scaled [5]: 21 mL/min/kg; fraction unbound [6]: 0.007; fraction unbound [7]: 0.021; fraction unbound [8]: 0.003; Kp at 0.25 h [9]: 0.25; Kp uu at 0.25 h [10]: 0.11 |

— ChEMBL document CHEMBL4610000, “Discovery of structurally distinct tricyclic M4 positive allosteric modulator (PAM) chemotypes” (Bioorg Med Chem Lett, 2020)
